In BindingDB's records for doi:10.1021/jm050175p (Wyeth Research, 2005):

Molecular target: Tyrosine-protein kinase ABL1 (Homo sapiens, UniProt P00519)
Test: Homogeneous Time-resolved Fluorescence (HTRF) Assay

Tyrosine-protein kinase ABL1, sequence (P00519 whole entry): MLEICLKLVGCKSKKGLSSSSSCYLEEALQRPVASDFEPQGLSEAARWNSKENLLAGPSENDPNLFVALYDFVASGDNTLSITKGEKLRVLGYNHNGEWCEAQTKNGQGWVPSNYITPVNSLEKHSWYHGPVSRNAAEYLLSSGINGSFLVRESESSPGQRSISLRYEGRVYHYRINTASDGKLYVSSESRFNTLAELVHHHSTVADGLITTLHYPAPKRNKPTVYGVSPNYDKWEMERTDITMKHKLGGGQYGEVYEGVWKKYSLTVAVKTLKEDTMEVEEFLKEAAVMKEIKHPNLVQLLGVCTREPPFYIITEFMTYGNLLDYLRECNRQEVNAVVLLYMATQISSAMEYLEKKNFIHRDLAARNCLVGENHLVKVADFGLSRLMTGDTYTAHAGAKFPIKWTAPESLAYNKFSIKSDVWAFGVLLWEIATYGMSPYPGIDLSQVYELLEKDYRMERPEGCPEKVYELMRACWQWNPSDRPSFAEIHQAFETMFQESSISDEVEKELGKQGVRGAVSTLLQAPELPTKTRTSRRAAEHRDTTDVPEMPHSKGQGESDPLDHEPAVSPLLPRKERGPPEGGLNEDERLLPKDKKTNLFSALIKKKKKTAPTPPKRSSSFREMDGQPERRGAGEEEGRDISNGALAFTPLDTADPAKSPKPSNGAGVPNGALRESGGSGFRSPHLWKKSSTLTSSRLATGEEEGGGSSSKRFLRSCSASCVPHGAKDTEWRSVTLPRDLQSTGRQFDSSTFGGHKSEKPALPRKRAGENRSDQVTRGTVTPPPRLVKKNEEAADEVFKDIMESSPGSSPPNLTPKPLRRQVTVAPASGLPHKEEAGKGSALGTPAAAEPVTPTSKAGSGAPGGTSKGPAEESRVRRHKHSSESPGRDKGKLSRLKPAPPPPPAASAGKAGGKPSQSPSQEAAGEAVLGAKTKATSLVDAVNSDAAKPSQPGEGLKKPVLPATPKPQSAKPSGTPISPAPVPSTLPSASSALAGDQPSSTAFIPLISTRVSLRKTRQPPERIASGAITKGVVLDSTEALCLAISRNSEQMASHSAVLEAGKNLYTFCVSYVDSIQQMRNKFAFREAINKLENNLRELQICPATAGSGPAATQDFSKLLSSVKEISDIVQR

Compound `COc1cc(Nc2c(C#N)cnc3cc(OCC4CCCN(C)C4)c(OC)cc23)c(Cl)cc1Cl` (centres undefined) [4-[(2,4-dichloro-5-methoxyphenyl)amino]-6-methoxy-7-[(1-methylpiperidin-3-yl)methoxy]quinoline-3-carbonitrile] has an IC50 of 4.6 nM.
In the case of `CCOc1cc(Nc2c(C#N)cnc3cc(OCC4CCN(C)CC4)c(OC)cc23)c(Cl)cc1Cl` [4-[(2,4-Dichloro-5-ethoxyphenyl)amino]-6-methoxy-7-[(1-methylpiperidin-4-yl)methoxy]quinoline-3-carbonitrile], the IC50 is reported as 1500 nM.
`COc1cc(Nc2c(C#N)cnc3cc(OC4CCN(C)CC4)c(OC)cc23)c(Cl)cc1Cl` [4-[(2,4-dichloro-5-methoxyphenyl)amino]-6-methoxy-7-[(1-methylpiperidin-4-yl)oxy]quinoline-3-carbonitrile] gave an IC50 of 89 nM.
`COc1cc(Nc2c(C#N)cnc3cc(OCC4CCCCN4C)c(OC)cc23)c(Cl)cc1Cl` (centres undefined) [4-[(2,4-dichloro-5-methoxyphenyl)amino]-6-methoxy-7-[(1-methylpiperidin-2-yl)methoxy]quinoline-3-carbonitrile] showed an IC50 of 56 nM.
